Test results: patent US20250154144A1 (CHILDREN'S HOSPITAL MEDICAL CENTER, priority 2021, published 2025)
Substitutions are numbered along the chain they refer to.

Experiments:
FLT3 N841I = biological target: T1, FLT3 N841I (Homo sapiens, UniProt P36888, N841I); test: DiscoverX KINOMEscan competition binding, FLT3 N841I
T1 construct: purchased DiscoverX (KINOMEscan)
T1 sequence (P36888 27-993 N841I): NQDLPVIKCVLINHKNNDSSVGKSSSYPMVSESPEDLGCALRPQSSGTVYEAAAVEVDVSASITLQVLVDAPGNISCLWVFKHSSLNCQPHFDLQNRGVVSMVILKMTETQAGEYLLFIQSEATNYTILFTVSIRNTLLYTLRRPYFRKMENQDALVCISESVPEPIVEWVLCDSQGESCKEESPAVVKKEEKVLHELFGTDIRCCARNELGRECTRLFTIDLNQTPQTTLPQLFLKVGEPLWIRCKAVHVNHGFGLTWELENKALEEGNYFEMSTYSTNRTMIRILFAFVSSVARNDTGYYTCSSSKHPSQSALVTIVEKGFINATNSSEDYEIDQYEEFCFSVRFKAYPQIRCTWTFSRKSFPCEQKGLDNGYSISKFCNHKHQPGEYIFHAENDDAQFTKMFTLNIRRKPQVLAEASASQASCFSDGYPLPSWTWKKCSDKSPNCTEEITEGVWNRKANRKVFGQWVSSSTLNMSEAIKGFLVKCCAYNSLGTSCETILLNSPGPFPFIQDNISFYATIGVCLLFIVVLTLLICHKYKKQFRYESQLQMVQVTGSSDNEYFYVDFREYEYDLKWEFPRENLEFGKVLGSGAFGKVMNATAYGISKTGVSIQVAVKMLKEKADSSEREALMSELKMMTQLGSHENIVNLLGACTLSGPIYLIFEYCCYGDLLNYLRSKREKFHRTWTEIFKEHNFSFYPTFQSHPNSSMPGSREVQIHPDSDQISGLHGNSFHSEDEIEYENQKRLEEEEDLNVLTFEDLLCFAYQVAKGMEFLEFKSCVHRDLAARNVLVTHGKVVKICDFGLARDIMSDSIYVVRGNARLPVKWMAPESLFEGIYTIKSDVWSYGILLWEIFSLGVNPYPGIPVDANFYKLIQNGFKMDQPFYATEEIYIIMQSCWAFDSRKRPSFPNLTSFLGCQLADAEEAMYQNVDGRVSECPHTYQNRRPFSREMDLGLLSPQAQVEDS

FLT3 R834Q = biological target: T2, FLT3 R834Q (Homo sapiens, UniProt P36888, R834Q); test: DiscoverX KINOMEscan competition binding, FLT3 R834Q
T2 construct: purchased DiscoverX (KINOMEscan)
T2 sequence (P36888 27-993 R834Q): T1 sequence (P36888 27-993 N841I) with R808Q, I815N

FLT3 Autoinh. = biological target: T3, FLT3 Autoinh. (Homo sapiens, UniProt P36888); test: DiscoverX KINOMEscan competition binding, FLT3 Autoinh.
T3 construct: purchased DiscoverX (KINOMEscan)
T3 sequence (P36888 564-993 limits assumed): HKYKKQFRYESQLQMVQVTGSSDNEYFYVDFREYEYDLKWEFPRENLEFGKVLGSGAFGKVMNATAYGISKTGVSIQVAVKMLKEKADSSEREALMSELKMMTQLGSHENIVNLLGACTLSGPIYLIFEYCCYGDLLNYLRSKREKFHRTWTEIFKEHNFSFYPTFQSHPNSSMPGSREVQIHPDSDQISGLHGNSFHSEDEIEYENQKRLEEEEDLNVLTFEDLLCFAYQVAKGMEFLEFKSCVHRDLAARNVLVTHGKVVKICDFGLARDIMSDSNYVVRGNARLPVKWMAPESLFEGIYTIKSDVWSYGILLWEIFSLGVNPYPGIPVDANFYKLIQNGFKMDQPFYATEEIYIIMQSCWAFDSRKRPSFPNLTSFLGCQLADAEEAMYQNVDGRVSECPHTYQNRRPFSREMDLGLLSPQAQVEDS

Row | SMILES | Kd (FLT3 N841I) [nM] | Kd (FLT3 R834Q) [nM] | Kd (FLT3 Autoinh.) [nM]
1 | CC(O)(c1cn2c(-c3ccnc(N[C@H]4CNCC[C@@H]4F)n3)cnc2cn1)C(F)(F)F (single isomer, unassigned) [Compound 72] | 7.4 | 14 | 25
2 | COc1cc2ncc(-c3ccnc(N[C@@H]4CCCNC4)n3)n2cc1C(C)(C)O [Compound 44, (R)-2-(7-methoxy-3-(2-(piperidin-3-ylamino)pyrimidin-4-yl)imidazo[1,2-a]pyridin-6-yl)propan-2-ol] | 0.97 | 1.4 | 2.3
3 | COc1cc2ncc(-c3ccnc(N[C@H]4CNCC[C@@H]4F)n3)n2nc1C1CC1 [Compound 51, 4-(6-cyclopropyl-7-methoxyimidazo[1,2-b]pyridazin-3-yl)-N-((3S,4S)-4-fluoropiperidin-3-yl)pyrimidin-2-amine] | 0.62 | 1.1 | 40

Results, then the molecule that gave them:

Row | Kd (FLT3 N841I) [nM] | Kd (FLT3 R834Q) [nM] | Kd (FLT3 Autoinh.) [nM] | SMILES
4 | 4.7 | 18 | – | F[C@H]1CCNC[C@@H]1Nc1cncc(-c2cnc3cc(OC4CC4)ccn23)n1 [Compound 12, 6-(7-cyclopropoxyimidazo[1,2-a]pyridin-3-yl)-N-((3S,4S)-4-fluoropiperidin-3-yl)pyrazin-2-amine]
5 | 0.51 | 1.8 | 25 | COc1cc2ncc(-c3cncc(N[C@H]4CNCC[C@@H]4F)n3)n2nc1C1CC1 [Compound 24, 6-(6-cyclopropyl-7-methoxyimidazo[1,2-b]pyridazin-3-yl)-N-((3S,4S)-4-fluoropiperidin-3-yl)pyrazin-2-amine]
6 | 5.6 | 9.3 | 33 | COc1cc2ncc(-c3cncc(N[C@H]4CNC[C@@H]4F)n3)n2nc1C1CC1 [Compound 22, 6-(6-cyclopropyl-7-methoxyimidazo[1,2-b]pyridazin-3-yl)-N-((3S,4S)-4-fluoropyrrolidin-3-yl)pyrazin-2-amine]
7 | 0.61 | 1.4 | 16 | COc1cc2ncc(-c3ccnc(N[C@H]4CNC[C@@H]4F)n3)n2nc1C1CC1 [Compound 49, 4-(6-cyclopropyl-7-methoxyimidazo[1,2-b]pyridazin-3-yl)-N-((3S,4S)-4-fluoropyrrolidin-3-yl)pyrimidin-2-amine]
